Measured values as given in article PMC11659888, “Structural Evidence for DUF512 as a Radical S-Adenosylmethionine Cobalamin-Binding Domain” (ACS Bio & Med Chem Au, 2024).

Columns and labels:
[1] = biological target: T1, pfDUF512 (Pyrococcus furiosus, UniProt Q8U2I5); assay: X-ray crystal structure; type: binding; conditions: 5 mM SAH in crystallisation, anoxic, with [4Fe-4S], cobalamin and 5'-dA; poor density for ribosyl and methionyl moieties
T1 construct: gene PF0849; full length, 358 residues (1-357 modelled); E. coli, SUMO tag cut with Ulp1, one extra N-terminal His left; monomer; [4Fe-4S]
T1 sequence (Q8U2I5 1-357): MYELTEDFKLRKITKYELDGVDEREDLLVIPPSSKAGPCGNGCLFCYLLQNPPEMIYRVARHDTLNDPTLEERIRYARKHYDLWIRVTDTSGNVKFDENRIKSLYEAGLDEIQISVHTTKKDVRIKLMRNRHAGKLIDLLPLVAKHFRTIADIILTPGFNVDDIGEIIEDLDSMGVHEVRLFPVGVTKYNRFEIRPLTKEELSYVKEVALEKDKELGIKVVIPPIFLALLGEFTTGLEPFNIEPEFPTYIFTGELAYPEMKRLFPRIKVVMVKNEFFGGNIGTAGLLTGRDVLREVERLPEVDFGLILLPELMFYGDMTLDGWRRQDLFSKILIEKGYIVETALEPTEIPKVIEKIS

[2] = biological target: T2, acDUF512 (Acinetobacter sp. CAG:196_36_41, UniProt Z9P1A2K5F3); assay: methylation of bound cobalamin, MeCbl, SAH and […]'-dA quantified; type: biochemical; conditions: titanium(III) citrate, 5 min
T2 construct: full-length gene, E. coli, SUMO tag cut with Ulp1; monomer; FeS cluster
T2 sequence (Z9P1A2K5F3 1-422): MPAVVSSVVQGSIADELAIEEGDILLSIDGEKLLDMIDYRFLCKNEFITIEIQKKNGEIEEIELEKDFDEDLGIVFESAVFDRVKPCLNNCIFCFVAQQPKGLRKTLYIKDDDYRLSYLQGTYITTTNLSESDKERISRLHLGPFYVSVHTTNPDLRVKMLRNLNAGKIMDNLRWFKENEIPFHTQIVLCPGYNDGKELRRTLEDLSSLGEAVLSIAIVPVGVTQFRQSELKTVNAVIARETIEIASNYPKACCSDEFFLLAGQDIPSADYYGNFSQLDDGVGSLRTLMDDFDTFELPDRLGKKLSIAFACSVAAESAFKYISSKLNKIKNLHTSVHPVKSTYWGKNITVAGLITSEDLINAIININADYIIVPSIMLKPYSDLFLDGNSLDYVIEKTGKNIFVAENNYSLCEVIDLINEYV

[3] = biological target: T1, pfDUF512; assay: methylation of bound cobalamin, MeCbl and […]'-dA detected; type: biochemical; conditions: titanium(III) citrate, 5 min
[4] = biological target: T3, csDUF512 (Clostridium sporogenes, UniProt Z9WP26CAS3); assay: methylation of bound cobalamin, MeCbl, SAH and […]'-dA quantified; type: biochemical; conditions: titanium(III) citrate, 5 min
T3 construct: full length, 444 residues (1-443 modelled); E. coli, SUMO tag cut with Ulp1; monomer; [4Fe-4S]; codon-optimized gene
T3 sequence (Z9WP26CAS3 1-443): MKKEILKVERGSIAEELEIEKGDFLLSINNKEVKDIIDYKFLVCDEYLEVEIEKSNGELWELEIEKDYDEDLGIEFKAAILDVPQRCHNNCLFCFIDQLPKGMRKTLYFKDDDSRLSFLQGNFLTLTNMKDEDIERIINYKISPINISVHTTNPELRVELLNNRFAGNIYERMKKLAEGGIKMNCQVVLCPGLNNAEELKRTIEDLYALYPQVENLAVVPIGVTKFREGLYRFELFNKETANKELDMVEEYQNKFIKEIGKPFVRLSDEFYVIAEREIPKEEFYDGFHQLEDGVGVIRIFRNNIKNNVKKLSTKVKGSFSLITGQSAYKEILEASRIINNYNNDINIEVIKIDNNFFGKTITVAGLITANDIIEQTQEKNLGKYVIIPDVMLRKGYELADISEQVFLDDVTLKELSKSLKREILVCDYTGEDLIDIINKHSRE

| Compound | X-ray crystal structure [1] | methylation of bound cobalamin, MeCbl, SAH and 5'-dA quantified [2] | methylation of bound cobalamin, MeCbl and 5'-dA detected [3] | methylation of bound cobalamin, MeCbl, SAH and 5'-dA quantified [4] |
| --- | --- | --- | --- | --- |
| Nc1ncnc2c1ncn2[C@@H]1O[C@H](CSCC[C@H](N)C(=O)O)[C@@H](O)[C@H]1O [SAH, S-adenosylhomocysteine] | pfDUF512 was crystallized under anoxic conditions in the presence of SAH | – | – | – |
| C[S+](CC[C@H](N)C(=O)O)C[C@H]1O[C@@H](n2cnc3c(N)ncnc32)[C@H](O)[C@@H]1O (stereo partly shown) [SAM, S-adenosylmethionine] | – | Upon incubating the four DUF512 proteins with SAM and titanium(III) citrate | Upon incubating the four DUF512 proteins with SAM and titanium(III) citrate | Upon incubating the four DUF512 proteins with SAM and titanium(III) citrate |
